Test results reported in patent US9078901B2, “Pharmacological modulation of telomere length in cancer cells for prevention and treatment of cancer” (priority 2007, dated 2015).
“Also recorded” adds a separate entry of the source.

Tests used:
U-2 OS cells = assay: Flow-FISH telomere length (PNA-FITC probe) and PI cell cycle analysis in treated telomerase negative U-2 OS cells; type: cell-based, human; conditions: for apoptosis (flow-FISH) / cell cycle (PI) / telomere length (flow-FISH): ACV 3 μM; for apoptosis (flow-FISH) / cell cycle (PI) / telomere length (flow-FISH) / apoptosis / cell cycle distribution / telomere length: GCV 1.5 μM, PCV 1.5 μM; for apoptosis / cell cycle distribution / telomere length: after 10 and 14 days of treatments, ACV 3.0 μM
Protocol: (§1) Both telomerase positive (HeLa) telomerase negative (U-2 OS) cell lines were used. Appropriate assays were performed to detect and confirm telomerase/L1RT specific activity in these cells.
(§2) Telomere length in ACV, GCV and PCV treated and untreated cell lines was measured by flow cytometry with a telomere-specific peptide nucleic acid (PNA) probe^23,24. To determine cell cycle distribution, cells were stained with propidium iodide (PI)^23.
(§3) The U-2 OS (osteosarcoma) and HeLa (uterine cervix) cell lines used in this study were obtained from American Type Culture Collection (Rockville, Md.). Cells were cultured in D-MEM media supplemented with 10% fetal calf serum at 37° C. in a humidified atmosphere of 5% CO2. For treatment of the cells with ACV, the media was supplemented with 3 μM of acyclovir (acyclovir, TEVA Pharm. Ind. Ltd, Israel). For treatment of the cells with GCV, the media was supplemented with 1.5 μM of GCV (Cymevene, Hoffman-La Roche). For treatment of the cells with PCV, the media was supplemented with 1.5 μM of PCV (penciclovir, Merck & Co.).
(§4) For telomere length measurement by flow cytometry, cells were stained with telomere specific FITC conjugated (C3TA2)3 PNA (Applied Biosystems) probe and contrastained with 0.06 μg/ml PI as described by Rufer et al., 1998, Telomere length dynamics in human lymphocyte subpopulations were measured by flow cytometry, Nat. Biotechnol. 16, 743-747.

HeLa cells [1] = assay: Flow-FISH telomere length (PNA-FITC probe) and PI cell cycle analysis in treated telomerase positive HeLa cells; type: cell-based, human; conditions: for apoptosis (flow-FISH) / cell cycle (PI) / telomere length (flow-FISH): 10 days of treatment, ACV 3 μM, FIG. 1; for apoptosis (flow-FISH) / cell cycle (PI) / telomere length (flow-FISH) / apoptosis / cell cycle distribution / telomere length: GCV 1.5 μM, PCV 1.5 μM; for apoptosis / cell cycle distribution / telomere length: after 10 and 14 days of treatments, ACV 3.0 μM; for cell cycle distribution (PI): treated for 14 days
Protocol: as §1, §2, §3, §4

HeLa cells [2] = assay: Tumor growth progression assay, s.c. HeLa xenografts in nude mice; type: in vivo, nude (nu/nu) mice; conditions: 1×10^6 HeLa cells s.c., GCV 2 mg/ml in drinking water ad libitum from day zero
Source text: Exemplary in vivo assays of anti-tumor efficacy of ACV, PCV and/or GCV using nude mice subcutaneous (s.c.) tumors grown from the human HeLa cancer cell line (i.e., xenografts bearing mice) as cancer models are described below. Human cancerous cells needed for in vivo assays may be prepared, for example, as follows: Telomerase positive HeLa human cell line and telomerase negative U-2 OS human cell line are obtained from public sources. Cells are maintained in D-MEM media supplemented with 10% foetal calf serum at 37° C. in a humidified atmosphere of 5% CO2. For in vivo assay, appropriate host, e.g., nude (nu/nu) mice of about 5-7 weeks old are obtained and maintained in pathogen-free conditions. Approximately, 1×10^6 HeLa cells (and/or U-2 OS cells) contained in 200 μl of serum-free media are delivered to all animals, briefly anaesthetized with Metofane, by subcutaneous (s.c.) injection in flank. Then the mice are divided into experimental group and control group. Appropriate concentrations of ACV, PCV and/or GCV are used for tumor growth progression or regression assays. In one embodiment, impairment of s.c. tumor growth or time to progression rather than decrease in size of an established tumor (regression) is assessed. […] Tumors are measured every 2-3 days. […] Tumor volume is calculated with formula 4/3πr^3, where r is the radius of the tumor.

Nc1nc2c(ncn2COCCO)c(=O)[nH]1 [ACV, 9-[2(hydromethoxy)-methyl]guanine]
apoptosis (flow-FISH) (U-2 OS cells; 10 days of treatment, FIG. 2): massive apoptosis | cell cycle (PI) (U-2 OS cells; 10 days of treatment, FIG. 2): changes in cell cycle | telomere length (flow-FISH) (U-2 OS cells; 10 days of treatment, FIG. 2): decrease in telomere length | cell cycle (PI) (U-2 OS cells; 14 days of treatment): changes in cell cycle; also recorded: G2 arrest of cell cycle | apoptosis (flow-FISH) (U-2 OS cells; 14 days of treatment, FIG. 3): massive apoptosis | telomere length (flow-FISH) (U-2 OS cells; 14 days of treatment, FIG. 3): decrease in telomere length | onset of changes in cell cycle distribution (U-2 OS cells; ACV treatment): could be detected after only few days | apoptosis (U-2 OS cells): massive apoptosis | cell cycle distribution (U-2 OS cells): G2 arrest | telomere length (U-2 OS cells): telomere shortening | apoptosis (flow-FISH) (HeLa cells [1]): massive apoptosis | cell cycle (PI) (HeLa cells [1]): changes in cell cycle | telomere length (flow-FISH) (HeLa cells [1]): decrease in telomere length | onset of changes in cell cycle distribution (HeLa cells [1]; ACV treatment): could be detected after only few days | apoptosis (HeLa cells [1]): massive apoptosis | cell cycle distribution (HeLa cells [1]): G2 arrest | telomere length (HeLa cells [1]): telomere shortening | cell cycle distribution (PI) (HeLa cells [1]): G2 arrest of cell cycle

Nc1nc(O)c2ncn(COC(CO)CO)c2n1 [GCV]
apoptosis (flow-FISH) (U-2 OS cells; 10 days of treatment, FIG. 2): massive apoptosis | cell cycle (PI) (U-2 OS cells; 10 days of treatment, FIG. 2): changes in cell cycle | telomere length (flow-FISH) (U-2 OS cells; 10 days of treatment, FIG. 2): decrease in telomere length | cell cycle (PI) (U-2 OS cells; 14 days of treatment): changes in cell cycle; also recorded: G2 arrest of cell cycle | apoptosis (flow-FISH) (U-2 OS cells; 14 days of treatment, FIG. 3): massive apoptosis | telomere length (flow-FISH) (U-2 OS cells; 14 days of treatment, FIG. 3): decrease in telomere length | apoptosis (U-2 OS cells): massive apoptosis | cell cycle distribution (U-2 OS cells): G2 arrest | telomere length (U-2 OS cells): telomere shortening | s.c. tumor development (HeLa cells [2]): remain tumor free | apoptosis (flow-FISH) (HeLa cells [1]): massive apoptosis | cell cycle (PI) (HeLa cells [1]): changes in cell cycle | telomere length (flow-FISH) (HeLa cells [1]): decrease in telomere length | apoptosis (HeLa cells [1]): massive apoptosis | cell cycle distribution (HeLa cells [1]): G2 arrest | telomere length (HeLa cells [1]): telomere shortening | cell cycle distribution (PI) (HeLa cells [1]): G2 arrest of cell cycle

Nc1nc2c(ncn2CCC(CO)CO)c(=O)[nH]1 [PCV]
apoptosis (flow-FISH) (U-2 OS cells; 10 days of treatment, FIG. 2): massive apoptosis | cell cycle (PI) (U-2 OS cells; 10 days of treatment, FIG. 2): changes in cell cycle | telomere length (flow-FISH) (U-2 OS cells; 10 days of treatment, FIG. 2): decrease in telomere length | cell cycle (PI) (U-2 OS cells; 14 days of treatment): changes in cell cycle; also recorded: G2 arrest of cell cycle | apoptosis (flow-FISH) (U-2 OS cells; 14 days of treatment, FIG. 3): massive apoptosis | telomere length (flow-FISH) (U-2 OS cells; 14 days of treatment, FIG. 3): decrease in telomere length | apoptosis (U-2 OS cells): massive apoptosis | cell cycle distribution (U-2 OS cells): G2 arrest | telomere length (U-2 OS cells): telomere shortening | apoptosis (flow-FISH) (HeLa cells [1]): massive apoptosis | cell cycle (PI) (HeLa cells [1]): changes in cell cycle | telomere length (flow-FISH) (HeLa cells [1]): decrease in telomere length | apoptosis (HeLa cells [1]): massive apoptosis | cell cycle distribution (HeLa cells [1]): G2 arrest | telomere length (HeLa cells [1]): telomere shortening | cell cycle distribution (PI) (HeLa cells [1]): G2 arrest of cell cycle
